Measurements from patent publication US20120157401A1, “METHODS FOR TREATING NEUROFIBROMATOSIS” (PTC Therapeutics, Inc., priority 2009, published 2012).
Read-outs that look alike come from different tables or passages of the source.

System: hypoxia-inducible endogenous VEGF expression
Assay: Hypoxia-inducible endogenous VEGF expression ELISA in HeLa cells, dose-response EC50 (Table 3)
Assay type: cell-based, human
Conditions: Homo sapiens
Method in brief: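 HeLa cells kept 24-48 h under hypoxia (1% O2, 5% CO2, nitrogen balance) with or without compound, e.g. seven concentrations; secreted VEGF in conditioned medium quantified by ELISA against a standard curve. Parallel Cell Titer Glo viability under identical conditions excludes cytotoxicity.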

[1] = HeLa cells, hypoxic conditions (1% O2), VEGF ELISA of conditioned media, read-out: ELISA EC50
[2] = HeLa cells, hypoxic conditions (1% O2), 24-48 hours, VEGF in conditioned media, read-out: ELISA EC50

SMILES	EC50 [2]	EC50 (HeLa, read-out: ELISA EC50 μM)	also measured
[H]/N=c1\scnn1CCOc1ccc(C2c3[nH]c4ccc(Cl)cc4c3CCN2C(=O)Oc2ccc(Cl)cc2)cc1 (centres unmarked) [Compound 1420]	–	–	EC50 [1]: < 0.008 µM
O=C(Oc1ccc(Cl)cc1)N1CCc2c([nH]c3ccc(Cl)cc23)C1c1ccc(OCCCCn2ccnc2)cc1 (centres unmarked) [Compound 705]	0.008 to 0.04 µM	–	–
O=C(Oc1ccc(Cl)cc1)N1CCc2c([nH]c3ccc(Cl)cc23)C1c1ccc(OCCCCN2CCCC2)cc1 (centres unmarked) [Compound 698]	–	0.008 to 0.04 µM	–
CN1CCN(CC(O)COc2ccc(C3c4[nH]c5ccc(Cl)cc5c4CCN3C(=O)Oc3ccc(Cl)cc3)cc2)CC1 (centres unmarked) [Compound 970]	–	0.008 to 0.04 µM	–
CNCC(O)COc1ccc(C2c3[nH]c4ccc(Cl)cc4c3CCN2C(=O)Oc2ccc(Cl)cc2)cc1 (centres unmarked) [Compound 850]	–	0.04 to 0.2 µM	–
Cc1ccc(OC(=O)N2CCc3c([nH]c4ccc(Cl)cc34)[C@@H]2c2ccc(OCCC(O)CNC(=O)c3ccccn3)cc2)cc1 (some centres unmarked) [Compound 1641]	–	–	EC50 [1]: < 0.008 µM
CC(=O)NCC(CCOc1ccc([C@H]2c3[nH]c4ccc(Cl)cc4c3CCN2C(=O)Oc2ccc(Cl)cc2)cc1)OC(C)=O (some centres unmarked) [Compound 1277]	< 0.008 µM	–	–
NC(=O)c1cn(CCOc2ccc(C3c4[nH]c5ccc(Cl)cc5c4CCN3C(=O)Oc3ccc(Cl)cc3)cc2)nc1N (centres unmarked) [Compound 1422]	–	–	EC50 [1]: 0.008 to 0.04 µM
COC(=O)c1ccc(C2c3[nH]c4ccc(Cl)cc4c3CCN2C(=O)Oc2ccc(F)cc2)cc1 (centres unmarked) [Compound 395]	< 0.008 µM	–	–
COCCN(CCOC)CC(O)COc1ccc(C2c3[nH]c4ccc(Cl)cc4c3CCN2C(=O)Oc2ccc(F)cc2)cc1 (centres unmarked) [Compound 913]	–	< 0.008 µM	–
O=C(Oc1ccc(F)cc1)N1CCc2c([nH]c3ccc(Cl)cc23)C1c1ccc(OCC(O)Cn2ccnc2)cc1 (centres unmarked) [Compound 922]	< 0.008 µM	–	–
[H]/N=c1\sc(C)cn1CCOc1ccc(C2c3[nH]c4ccc(Cl)cc4c3CCN2C(=O)Oc2ccc(F)cc2)cc1 (centres unmarked) [Compound 1392]	–	–	EC50 [1]: < 0.008 µM
O=C(Oc1ccccc1Cl)N1CCc2c([nH]c3ccc(Cl)cc23)C1c1ccc(OCC2OCCO2)cc1 (centres unmarked) [Compound 1052]	0.008 to 0.04 µM	–	–
O=C(Oc1ccc(Cl)cc1)N1CCc2c([nH]c3ccc(Cl)cc23)C1c1ccc(OCCCCN2CCOCC2)cc1 (centres unmarked) [Compound 702]	–	0.008 to 0.04 µM	–
O=C(Oc1ccc(F)cc1)N1CCc2c([nH]c3ccc(Cl)cc23)C1c1cccc(OCCCN2CCOCC2)c1 (centres unmarked) [Compound 1115]	–	0.008 to 0.04 µM	–
O=C(Oc1ccc(F)cc1)N1CCc2c([nH]c3ccc(Cl)cc23)C1c1ccc(OCCCN2CCSCC2)cc1 (centres unmarked) [Compound 991]	–	0.04 to 0.2 µM	–

SMILES	EC50 [2]	EC50 (HeLa, read-out: ELISA EC50 μM)	also measured
COc1ccc(OC(=O)N2CCc3c([nH]c4ccc(Br)cc34)[C@@H]2c2ccc(Cl)cc2)cc1 [#332]	> 1 µM	–	–
O=C(Oc1ccc(Cl)cc1)N1CCc2c([nH]c3ccc(Cl)cc23)[C@@H]1c1ccc(Oc2ccc(Cl)nn2)cc1 [Compound 1698]	–	–	EC50 [1]: < 0.008 µM
COCCOCCOc1ccc(C2c3[nH]c4ccc(Cl)cc4c3CCN2C(=O)Oc2ccc(OC)cc2)cc1 (centres unmarked) [Compound 678]	0.04 to 0.2 µM	–	–
O=C(O)c1ccc(C2c3[nH]c4ccc(Cl)cc4c3CCN2C(=O)Oc2ccc(F)cc2)cc1 (centres unmarked) [Compound 581]	> 1 µM	–	–
CS(=O)(=O)Cc1cnc(Oc2ccc([C@H]3c4[nH]c5ccc(Cl)cc5c4CCN3C(=O)Oc3ccc(Cl)cc3)cc2)s1 [Compound 1702]	–	–	EC50 [1]: < 0.008 µM
O=C(Oc1ccc(F)cc1)N1CCc2c([nH]c3ccc(Cl)cc23)C1c1cccc(OCCCN2CCSCC2)c1 (centres unmarked) [Compound 1117]	–	0.008 to 0.04 µM	–
O=C(Oc1ccccc1)N1CCc2c([nH]c3ccc(Cl)cc23)C1c1ccc(OCC(O)CO)cc1 (centres unmarked) [Compound 626]	0.008 to 0.04 µM	–	–
O=C(Oc1ccc(F)cc1)N1CCc2c([nH]c3ccc(Br)cc23)C1c1ccc(OCC(O)CO)cc1 (centres unmarked) [Compound 1343]	–	–	EC50 [1]: < 0.008 µM
COc1ccc(C2c3[nH]c4ccc(OCc5ccccc5)cc4c3CCN2C(=O)Oc2ccc(Cl)cc2)cc1 (centres unmarked) [Compound 616]	0.2 to 1 µM	–	–
O=C(Oc1ccccc1Cl)N1CCc2c([nH]c3ccc(Cl)cc23)C1c1ccc(Cl)cc1 (centres unmarked) [Compound 589]	0.04 to 0.2 µM	–	–
Cc1ccc(C2c3[nH]c4ccc(Cl)cc4c3CCN2C(=O)Oc2ccc(Cl)cc2)cc1 (centres unmarked) [Compound 347]	< 0.008 µM	–	–
COCCN1CCN(C(=O)COc2ccc(C3c4[nH]c5ccc(Cl)cc5c4CCN3C(=O)Oc3ccc(F)cc3)cc2)CC1 (centres unmarked) [Compound 1021]	–	0.04 to 0.2 µM	–
COCCOCCOc1ccc(C2c3[nH]c4ccc(Cl)cc4c3CCN2C(=O)Oc2ccc(Br)cc2)cc1 (centres unmarked) [Compound 680]	< 0.008 µM	–	–
CCOC(COc1ccc(C2c3[nH]c4ccc(Cl)cc4c3CCN2C(=O)Oc2ccc(Cl)cc2)cc1)OCC (centres unmarked) [Compound 1228]	< 0.008 µM	–	–
O=C(Oc1ccc(Cl)cc1)N1CCc2c([nH]c3ccc(Cl)cc23)[C@@H]1c1ccc(OCCCNC(CO)(CO)CO)cc1 [Compound 1255]	–	0.04 to 0.2 µM	–
O=C(Oc1ccc(F)cc1)N1CCc2c([nH]c3ccc(Br)cc23)C1c1ccc(OCC[C@H](O)CO)cc1 (some centres unmarked) [Compound 1348]	–	–	EC50 [1]: < 0.008 µM
